Laboratory results reported in publication PMC8351955, “Targeting Mycobacterium tuberculosis response to environmental cues for the development of effective antitubercular drugs” (PLoS Biology, 2021).
Read-outs that look alike come from different tables or passages of the source.

Legend:
Test in all cases: microbe, parasite or virus in culture
Type in all cases: cell-based, Mycobacterium tuberculosis
[1] = tested on: CDC1551(rv1405c′::GFP) reporter Mtb strain; conditions: for activity at 10 µM / activity at 20 µM / IC50: Mycobacterium tuberculosis; for activity at 10 µM: read-out: rv1405c'::GFP secondary assay NPA% at 10 µM compound; for activity at 20 µM: read-out: rv1405c'::GFP secondary assay NPA% at 20 µM compound; for IC50: read-out: ShuminTan.MtbChloride.Secondary: IC50
[2] = tested on: CDC1551(rv2390c′::GFP) reporter Mtb strain, response to high [Cl−]; conditions: for activity at 10 µM / activity at 20 µM / IC50: Mycobacterium tuberculosis; for activity at 10 µM / activity at 20 µM: 144 h; for activity at 20 µM: read-out: rv2390c'::GFP validation assay NPA% at 20 µM compound; for IC50: read-out: ShuminTan.MtbChloride.Validation: IC50; for ShuminTan.MtbChloride.Primary: NPI%: primary screen, Sheet2
[3] = tested on: Mtb growth in J774 murine macrophage-like cells; conditions: for inhibition at 10 µM / inhibition at 20 µM / IC50: Mycobacterium tuberculosis; for inhibition at 10 µM: read-out: J774 tertiary assay % inhibition compared to Rif at 10 µM compound; for NPI (Mtb growth in J774 cells), average: Fig 1F; for IC50: J774 dose response 0.039-20 µM, read-out: ShuminTan.Mtb.Validation.Macrophage: IC50
[4] = pH 6.4, […], DMSO positive control = 100%, read-out: Primary screen rv2390c'::GFP NPA%
[5] = 10 µM, pH 6.4, 250 mM NaCl, 6 days, read-out: rv2390c'::GFP validation assay NPA% at 10 µM compound
[6] = J774, 144 h, read-out: J774 tertiary assay % inhibition compared to Rif at 20 µM compound
[7] = 0.078125 µM, 5 µM rifampicin = 100% inhibition
[8] = J774, read-out: %inhibition compared to Rif in J774 at 20 uM

N#Cc1nc(NC(=O)c2ccc(N3CCCC3)c(F)c2)[nH]c1C#N [RU-0274370, FC1=C(C=CC(=C1)C(=O)NC1=NC(C#N)=C(N1)C#N)N1CCCC1]
activity at 10 µM [1]: 181 ± 7.8%
activity at 20 µM [1]: 363 ± 8.7%
activity at 10 µM [2, 4]: 227%
activity at 10 µM [2, 5]: 143 ± 10%
activity at 20 µM ([2]; pH 6.4, 250 mM NaCl, 6 days): 268 ± 20.8%
inhibition at 10 µM ([3]; J774, 144 h): 22.2 ± 0.2%
inhibition at 20 µM [3, 6]: 25.3 ± 4.1%

O=C(c1cnn2ccccc12)N1CCCC(CCc2cccc(C(F)(F)F)c2)C1 (stereo not shown) [C5 analog, FC(F)(F)C1=CC=CC(CCC2CCCN(C2)C(=O)C2=C3C=CC=CN3N=C2)=C1]
activity at 10 µM [1]: 110 ± 7.2%
activity at 20 µM [1]: 150 ± 12%
activity at 10 µM [2, 4]: 167%
activity at 10 µM [2, 5]: 112 ± 12%
activity at 20 µM ([2]; pH 6.4, 250 mM NaCl, 6 days): 156 ± 9.9%
NPI (Mtb growth in J774 cells), average [3, 7]: -4.805%
NPI (Mtb growth in J774 cells), average ([3]; 0.15625 µM): -8.165%
NPI (Mtb growth in J774 cells), average ([3]; 0.3125 µM): -7.245%
NPI (Mtb growth in J774 cells), average ([3]; 0.625 µM): 7.86%
NPI (Mtb growth in J774 cells), average ([3]; 1.25 µM): -0.385%
NPI (Mtb growth in J774 cells), average ([3]; 2.5 µM): 11.205%
NPI (Mtb growth in J774 cells), average ([3]; 5 µM): 9.965%
NPI (Mtb growth in J774 cells), average ([3]; 10 µM): 21.35%
NPI (Mtb growth in J774 cells), average ([3]; 20 µM): 48.15%
inhibition at 10 µM ([3]; J774, 144 h): 21.4 ± 7.7%
inhibition at 20 µM [3, 6]: 48.2 ± 1.5%

Cc1ccc(NS(=O)(=O)c2ccc(C)c(F)c2)c(C(=O)O)c1 [RU-0273440, CC1=CC(C(O)=O)=C(NS(=O)(=O)C2=CC(F)=C(C)C=C2)C=C1]
rv1405c assay NPI at 10 uM [1]: 34
rv1405c assay NPI at 20 uM [1]: 23.8
IC50 [1]: < 39.1 nM
activity at 10 µM [1]: 33.8 ± 5.6%
activity at 20 µM [1]: 23.3 ± 4.7%
validation NPI at 10 uM [2]: 60.2
validation NPI at 20 uM [2]: 37.8
activity at 10 µM [2, 4]: 49.3%
activity at 10 µM [2, 5]: 60.2 ± 7.2%
activity at 20 µM ([2]; pH 6.4, 250 mM NaCl, 6 days): 37.7 ± 5.2%
IC50 [2]: > 20000 nM
ShuminTan.MtbChloride.Primary: NPI% [2]: 49.3142%
inhibition at 20 µM [3, 8]: 18.3%
IC50 [3]: > 20000 nM

Cc1cccc(C)c1OC1CCN(c2cncc(C(N)=O)n2)CC1 [RU-0273431, CC1=CC=CC(C)=C1OC1CCN(CC1)C1=NC(=CN=C1)C(N)=O]
activity at 10 µM [1]: 145 ± 16%
activity at 20 µM [1]: 159 ± 12.5%
activity at 10 µM [2, 4]: 151%
activity at 10 µM [2, 5]: 136 ± 9.1%
activity at 20 µM ([2]; pH 6.4, 250 mM NaCl, 6 days): 135 ± 17.7%
inhibition at 10 µM ([3]; J774, 144 h): 21.4 ± 7.4%
inhibition at 20 µM [3, 6]: 34.9 ± 5.2%

CN(CC(O)c1ccccc1Cl)C1CCc2ccccc21 (stereo not shown) [RU-0271187, CN(CC(O)C1=C(Cl)C=CC=C1)C1CCC2=C1C=CC=C2]
activity at 10 µM [1]: 228 ± 8.7%
activity at 20 µM [1]: 461 ± 7.9%
activity at 10 µM [2, 4]: 166%
activity at 10 µM [2, 5]: 138 ± 7.4%
activity at 20 µM ([2]; pH 6.4, 250 mM NaCl, 6 days): 207 ± 9.5%
inhibition at 10 µM ([3]; J774, 144 h): 4.8 ± 0.1%
inhibition at 20 µM [3, 6]: 36.1 ± 0.1%

COc1ccc(Cl)c(NS(=O)(=O)c2cnc(Cl)n2C)c1 [RU-0278036, COC1=CC(NS(=O)(=O)C2=CN=C(Cl)N2C)=C(Cl)C=C1]
activity at 10 µM [1]: 75.9 ± 12.9%
activity at 20 µM [1]: 152 ± 19.9%
activity at 10 µM [2, 4]: 48.8%
activity at 10 µM [2, 5]: 87.6 ± 8%
activity at 20 µM ([2]; pH 6.4, 250 mM NaCl, 6 days): 50 ± 7.7%
inhibition at 10 µM ([3]; J774, 144 h): 23.9 ± 12.9%
inhibition at 20 µM [3, 6]: 61.5 ± 2.6%

Cc1c(Cl)cccc1S(=O)(=O)Nc1nn(C(C)(C)C)cc1C#N [RU-0208737, CC1=C(C=CC=C1Cl)S(=O)(=O)NC1=NN(C=C1C#N)C(C)(C)C]
activity at 10 µM [1]: 50.8 ± 1.7%
activity at 20 µM [1]: 84.4 ± 13.1%
activity at 10 µM [2, 4]: 47.8%
activity at 10 µM [2, 5]: 53.8 ± 2.8%
activity at 20 µM ([2]; pH 6.4, 250 mM NaCl, 6 days): 40.2 ± 8.5%
inhibition at 10 µM ([3]; J774, 144 h): 9.6 ± 0.7%
inhibition at 20 µM [3, 6]: 20.9 ± 6.9%

CCc1nc(Cn2ccnc2-c2nc3c(s2)CCCC3)no1 [RU-0226010, CCC1=NC(CN2C=CN=C2C2=NC3=C(CCCC3)S2)=NO1]
activity at 10 µM [1]: 92.3 ± 12.5%
activity at 20 µM [1]: 104 ± 23.1%
activity at 10 µM [2, 4]: 168%
activity at 10 µM [2, 5]: 125 ± 6.6%
activity at 20 µM ([2]; pH 6.4, 250 mM NaCl, 6 days): 129 ± 4%
inhibition at 20 µM [3, 6]: 30.4 ± 2.4%

O=C(Nc1cccc(C(F)(F)F)c1)c1n[nH]c(=O)c2ccccc12 [RU-0270645, FC(F)(F)C1=CC(NC(=O)C2=NNC(=O)C3=C2C=CC=C3)=CC=C1]
rv1405c assay NPI at 10 uM [1]: 93.5
rv1405c assay NPI at 20 uM [1]: 138
IC50 [1]: < 39.1 nM
activity at 10 µM [1]: 93.4 ± 11.5%
activity at 20 µM [1]: 139 ± 4.6%
validation NPI at 10 uM [2]: 143
validation NPI at 20 uM [2]: 153
activity at 10 µM [2, 4]: 155%
activity at 10 µM [2, 5]: 142 ± 8.2%
activity at 20 µM ([2]; pH 6.4, 250 mM NaCl, 6 days): 152 ± 12.1%
IC50 [2]: < 39.1 nM
ShuminTan.MtbChloride.Primary: NPI% [2]: 154.973%
inhibition at 20 µM [3, 8]: 17.7%
IC50 [3]: > 20000 nM

CCCSc1ncc(CN2CCN(c3ncnc4[nH]cnc34)CC2)cn1 [C6 analog, CCCSC1=NC=C(CN2CCN(CC2)C2=NC=NC3=C2N=CN3)C=N1]
activity at 10 µM [1]: 151 ± 6.4%
activity at 20 µM [1]: 154 ± 8.1%
activity at 10 µM [2, 4]: 153%
activity at 10 µM [2, 5]: 124 ± 10.1%
activity at 20 µM ([2]; pH 6.4, 250 mM NaCl, 6 days): 158 ± 6.1%
NPI (Mtb growth in J774 cells), average [3, 7]: -6.22%
NPI (Mtb growth in J774 cells), average ([3]; 0.15625 µM): 3.8025%
NPI (Mtb growth in J774 cells), average ([3]; 0.3125 µM): 9.675%
NPI (Mtb growth in J774 cells), average ([3]; 0.625 µM): 16.75%
NPI (Mtb growth in J774 cells), average ([3]; 1.25 µM): 32.05%
NPI (Mtb growth in J774 cells), average ([3]; 2.5 µM): 36.55%
NPI (Mtb growth in J774 cells), average ([3]; 5 µM): 46.75%
NPI (Mtb growth in J774 cells), average ([3]; 10 µM): 41.15%
NPI (Mtb growth in J774 cells), average ([3]; 20 µM): 53.2%
inhibition at 10 µM ([3]; J774, 144 h): 41.2 ± 0.6%
inhibition at 20 µM [3, 6]: 53.2 ± 1.6%

CCOc1ccc(OCCN(CC)CC(O)c2ccc(C)cc2)cc1 (stereo not shown) [RU-0211290, CCOC1=CC=C(OCCN(CC)CC(O)C2=CC=C(C)C=C2)C=C1]
rv1405c assay NPI at 10 uM [1]: 103
rv1405c assay NPI at 20 uM [1]: 129
IC50 [1]: < 39.1 nM
activity at 10 µM [1]: 102 ± 6.3%
activity at 20 µM [1]: 128 ± 6%
validation NPI at 10 uM [2]: 111
validation NPI at 20 uM [2]: 146
activity at 10 µM [2, 4]: 152%
activity at 10 µM [2, 5]: 111 ± 8.9%
activity at 20 µM ([2]; pH 6.4, 250 mM NaCl, 6 days): 145 ± 8.4%
IC50 [2]: < 39.1 nM
ShuminTan.MtbChloride.Primary: NPI% [2]: 152.309%
inhibition at 20 µM [3, 8]: 17.1%
IC50 [3]: > 20000 nM

N=C1SCC(=O)N1c1ncc(Cc2ccccc2)s1 [RU-0270641, N=C1SCC(=O)N1C1=NC=C(CC2=CC=CC=C2)S1]
activity at 10 µM [1]: 79.6 ± 11%
activity at 20 µM [1]: 110 ± 12.2%
activity at 10 µM [2, 4]: 42.5%
activity at 10 µM [2, 5]: 69 ± 5%
activity at 20 µM ([2]; pH 6.4, 250 mM NaCl, 6 days): 33.9 ± 6.5%
inhibition at 10 µM ([3]; J774, 144 h): 12.1 ± 10.5%
inhibition at 20 µM [3, 6]: 28.8 ± 4.5%

O=S1(=O)CC(S(=O)(=O)Nc2ccccc2-c2cccs2)c2ccccc21 (stereo not shown) [RU-0214604, O=S(=O)(NC1=C(C=CC=C1)C1=CC=CS1)C1CS(=O)(=O)C2=C1C=CC=C2]
rv1405c assay NPI at 10 uM [1]: 181
rv1405c assay NPI at 20 uM [1]: 212
IC50 [1]: < 39.1 nM
activity at 10 µM [1]: 179 ± 26.5%
activity at 20 µM [1]: 213 ± 23.6%
validation NPI at 10 uM [2]: 146
validation NPI at 20 uM [2]: 162
activity at 10 µM [2, 4]: 183%
activity at 10 µM [2, 5]: 145 ± 12%
activity at 20 µM ([2]; pH 6.4, 250 mM NaCl, 6 days): 161 ± 3.2%
IC50 [2]: < 39.1 nM
ShuminTan.MtbChloride.Primary: NPI% [2]: 183.08%
inhibition at 20 µM [3, 8]: 14.8%
IC50 [3]: > 20000 nM
